Assay results from US10663548B2, “System and method for magnetic resonance imaging” (The University of Western Ontario, priority 2008, dated 2020).
Like-named read-outs stand apart in the source and are kept apart here.

Experiments:
human serum albumin = human serum albumin (Homo sapiens, UniProt P02768); details: cited from earlier work; for increase of relaxivity of the bound form: in the presence of human serum albumin
albumin [1] = experiment: Relaxivity in the presence and absence of albumin at 1.5 T; format: physicochemical
Method: To characterize the efficacy of an activatable contrast agent, the relaxivity enhancement ratio, that is the ratio of the activated relaxivity to the inactivated relaxivity can be defined. For Vasovist at a magnetic field strength equal to 1.5 T, the relaxivities in the presence and absence of albumin are 19 s^−1 mM^−1 and 5.2 s^−1 mM^−1 respectively, resulting in a relaxivity enhancement ratio of 3.7. From FIG. 3 it can be seen that the Vasovist relaxivity enhancement ratio peaks in the vicinity of a magnetic filed strength equal to 0.5 T, and falls quickly for magnetic field strengths above that value.
Defining R1′ and r1′ as the partial derivatives of R1 and r1 with respect to the polarizing magnetic field B0 results in R1′=R1Unenhanced′+r1′*[CA]. Applying the approximation that R1′Unenhanced≈0 for magnetic fields above 1.0 T, results in the expression R1′≈r1′*[CA]. […] For Vasovist, the relaxivity slope enhancement ratio (ratio of activated r1′ to inactivated r1′) is 90 at a magnetic field strength equal to 1.5 T. This represents a 25-fold increase over the absolute relaxivity enhancement ratio of 3.7 mentioned above. The high specificity of DREMR enhancement is not specific to Vasovist but applies to any T1 contrast agent that undergoes binding to large molecules (15).

rabbit serum albumin = biological target: T1, rabbit serum albumin (Oryctolagus cuniculus, UniProt P49065); experiment: MRI phantom imaging (T1 weighted and DREMR) with and without rabbit serum albumin; details: 1.5 T, 21° C.
T1 construct: purchased Sigma-Aldrich batch 104K7560 (catalogue number not given)
Method: The particular choice of agent/protein pair was based by the availability of the contrast agent and its well-documented relaxivity mechanisms, rather than any specific clinical or research interest in albumin.
An MRI phantom (see FIG. 5a) was constructed that held two columns of six rows of glass tubes; each tube 3 cm in length with a 0.4 mL capacity. The sample tubes in the left column were filled with 0.01 M phosphate buffered saline (PBS) (NaCl 0.138M, KCl 0.0027M, pH 7.4 at 25° C.). The right column of sample tubes held a solute of rabbit serum albumin (Sigma-Aldrich, batch 104K7560, agarose gel electrophoresis) in PBS. The albumin, purchased as a lyophilized powder, was dissolved in PBS, at a 4.5% weight to volume ratio resulting in ˜0.67 mM concentration. Vasovist (0.25 mmol/mL) was added in equal concentration to both columns to achieve sample concentrations of 0, 10, 20, 40, 80 and 160 μM as a function of descending rows.
Imaging was performed on a Sigma LX 1.5 T clinical MRI machine (General Electric Healthcare), equipped with an actively shielded electromagnetic ΔB insert (19). […]

albumin [2] = details: 1.5 T, cited from earlier work
myeloperoxidase = biological target: T2, myeloperoxidase (Homo sapiens, UniProt P05164); details: in the presence of active myeloperoxidase; cited from earlier work
T2 sequence (P05164 49-745): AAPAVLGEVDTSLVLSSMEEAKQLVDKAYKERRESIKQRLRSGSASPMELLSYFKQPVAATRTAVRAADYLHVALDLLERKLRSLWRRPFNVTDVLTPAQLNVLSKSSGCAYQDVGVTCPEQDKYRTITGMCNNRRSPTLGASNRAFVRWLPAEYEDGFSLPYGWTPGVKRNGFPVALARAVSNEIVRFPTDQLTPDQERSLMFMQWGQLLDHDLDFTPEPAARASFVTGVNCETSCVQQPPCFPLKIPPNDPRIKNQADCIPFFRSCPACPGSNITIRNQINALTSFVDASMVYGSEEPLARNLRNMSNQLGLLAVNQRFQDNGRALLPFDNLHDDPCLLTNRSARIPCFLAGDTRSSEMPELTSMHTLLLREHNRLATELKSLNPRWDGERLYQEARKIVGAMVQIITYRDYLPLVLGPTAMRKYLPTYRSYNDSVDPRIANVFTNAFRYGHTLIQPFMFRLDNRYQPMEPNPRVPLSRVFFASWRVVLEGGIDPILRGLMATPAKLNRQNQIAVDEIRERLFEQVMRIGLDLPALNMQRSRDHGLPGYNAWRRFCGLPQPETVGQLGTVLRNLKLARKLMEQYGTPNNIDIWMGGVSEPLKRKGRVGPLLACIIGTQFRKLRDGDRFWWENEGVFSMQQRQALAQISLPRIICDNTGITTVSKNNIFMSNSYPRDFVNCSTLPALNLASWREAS

human serum albumin, sequence (P02768 25-609): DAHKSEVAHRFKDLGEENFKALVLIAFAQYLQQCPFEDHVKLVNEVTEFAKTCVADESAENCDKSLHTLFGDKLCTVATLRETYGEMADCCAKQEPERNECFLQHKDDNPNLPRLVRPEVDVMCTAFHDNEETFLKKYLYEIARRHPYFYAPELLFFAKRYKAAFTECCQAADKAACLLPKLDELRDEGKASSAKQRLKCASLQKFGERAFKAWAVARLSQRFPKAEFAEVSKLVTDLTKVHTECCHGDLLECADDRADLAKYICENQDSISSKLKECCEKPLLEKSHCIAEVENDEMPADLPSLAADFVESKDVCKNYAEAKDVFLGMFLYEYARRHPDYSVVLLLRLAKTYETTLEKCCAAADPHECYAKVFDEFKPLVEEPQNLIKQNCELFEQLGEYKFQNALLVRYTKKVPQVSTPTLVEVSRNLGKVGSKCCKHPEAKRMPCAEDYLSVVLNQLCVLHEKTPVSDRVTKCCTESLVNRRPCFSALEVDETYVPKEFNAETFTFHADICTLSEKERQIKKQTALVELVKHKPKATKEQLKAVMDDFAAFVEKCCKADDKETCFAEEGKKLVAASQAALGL
T1 sequence (P49065 25-608): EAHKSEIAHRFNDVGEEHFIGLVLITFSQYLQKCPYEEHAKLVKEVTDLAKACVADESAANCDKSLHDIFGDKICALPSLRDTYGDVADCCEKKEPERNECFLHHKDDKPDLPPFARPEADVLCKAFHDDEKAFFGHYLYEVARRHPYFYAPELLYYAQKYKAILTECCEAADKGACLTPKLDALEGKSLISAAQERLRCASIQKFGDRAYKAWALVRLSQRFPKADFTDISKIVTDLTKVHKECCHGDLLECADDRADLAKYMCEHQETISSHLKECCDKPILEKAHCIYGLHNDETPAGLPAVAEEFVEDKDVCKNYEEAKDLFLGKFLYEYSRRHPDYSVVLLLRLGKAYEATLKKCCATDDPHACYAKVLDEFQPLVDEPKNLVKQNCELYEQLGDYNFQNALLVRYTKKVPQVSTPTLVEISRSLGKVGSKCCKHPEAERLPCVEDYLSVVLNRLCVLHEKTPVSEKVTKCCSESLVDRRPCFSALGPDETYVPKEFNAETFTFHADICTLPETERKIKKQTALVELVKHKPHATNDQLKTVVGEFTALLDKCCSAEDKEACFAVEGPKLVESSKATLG

Row | Compound | binding to human serum albumin (human serum albumin) | increase of relaxivity of the bound form (human serum albumin; 30 Mhz) | increase of relaxivity of the bound form (human serum albumin; 60 MHz) | increase of relaxivity slope enhancement ratio over absolute relaxivity enhancement ratio (albumin [1]; 1.5 T) [fold] | relaxivity enhancement ratio (activated relaxivity to inactivated relaxivity) (albumin [1]; 1.5 T) | relaxivity slope enhancement ratio (activated r1′ to inactivated r1′) (albumin [1]; 1.5 T) | magnetic field strength at which the relaxivity enhancement ratio peaks (albumin [1]; from FIG. 3) [T] | DREMR image intensity, albumin samples (rabbit serum albumin; 4.5% rabbit serum albumin in PBS, ±70 mT ΔB) | standard T1 weighted spin-echo image intensity (rabbit serum albumin; albumin solution and PBS samples, 0-160 μM) | relaxivity (albumin [2]; absence of albumin) [s⁻¹ mM⁻¹] | relaxivity (albumin [2]; presence of albumin) [s⁻¹ mM⁻¹] | relaxivity change on conversion to oligomeric form (myeloperoxidase)
1 | O=C([O-])CN(CCN(CC(=O)[O-])CC(COP(=O)([O-])OC1CCC(c2ccccc2)(c2ccccc2)CC1)N(CC(=O)[O-])CC(=O)[O-])CC(=O)[O-].[Gd+3].[Na+].[Na+].[Na+] (stereo not drawn) [Vasovist, Gadofosveset trisodium] | strong non-covalent binding | approximately an order of magnitude | approximately four-fold | 25 | 3.7 | 90 | ~0.5 | continued to demonstrate dependence on Vasovist concentration | demonstrated significant dependence on Vasovist concentration | 5.2 | 19 | 
2 | O=C([O-])CN(CCN(CC(=O)[O-])CC(=O)NCCc1c[nH]c2ccc(O)cc12)CCN(CC(=O)[O-])CC(=O)NCCc1c[nH]c2ccc(O)cc12.[Gd+3] [bis-5-HT-DTPA(Gd)] |  |  |  |  |  |  |  |  |  |  |  | enhanced relaxivity
